A value given as a limit tells only on which side of the number the result lay.

The values below come from US20260365647A1, “AKT1 MODULATORS” (Alterome Therapeutics, Inc., priority 2022, published 2026).

The assay deals with T1, AKT1-E17K (Homo sapiens, UniProt P31749, E17K).
T1 construct: host or cells: HEK-293 (ATCC CRL-1573)
T1 sequence (P31749 whole entry E17K): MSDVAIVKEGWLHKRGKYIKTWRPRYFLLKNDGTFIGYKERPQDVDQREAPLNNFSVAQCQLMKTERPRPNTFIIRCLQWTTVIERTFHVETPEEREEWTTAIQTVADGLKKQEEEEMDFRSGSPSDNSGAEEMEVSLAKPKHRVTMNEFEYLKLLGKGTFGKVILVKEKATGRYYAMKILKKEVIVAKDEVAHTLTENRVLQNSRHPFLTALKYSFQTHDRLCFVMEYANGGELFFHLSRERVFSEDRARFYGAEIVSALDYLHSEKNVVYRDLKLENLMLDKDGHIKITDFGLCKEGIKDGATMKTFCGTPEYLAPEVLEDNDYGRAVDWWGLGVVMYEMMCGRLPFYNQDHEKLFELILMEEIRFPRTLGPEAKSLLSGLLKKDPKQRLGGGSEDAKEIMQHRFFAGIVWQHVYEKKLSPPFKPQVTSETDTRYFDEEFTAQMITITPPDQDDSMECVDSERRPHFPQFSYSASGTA
As to the kind of experiment: NanoBRET Target Engagement (TE) Assay. It counts as cell-based. The text has this:
The NanoBRET™ Target Engagement (TE) Intracellular Kinase Assays are based on the NanoBRET™ System (Promega Corporation), an energy transfer technique designed to measure molecular proximity in living cells. The NanoBRET™ TE Assays measure the apparent affinity of test compounds by competitive displacement of the NanoBRET™ tracer compound, which is a cell permeable molecule engineered to be reversibly bound to a NanoLuc® luciferase-kinase fusion expressed in cells. For compound screening, when a test compound binds to the selected kinase, the BRET signal is attenuated. […] All cells were evaluated for viability prior to transfection and optimization of the transfection was done prior to experimentation. […] Following transfection, cells were washed and resuspended in Opti-MEM. NanoBRET assays were performed in white, 384-well plates (Corning) at a density of […]. All example compounds were prepared as concentrated stock solutions in DMSO (Sigma-Aldrich). Compounds are dissolved in DMSO to make 10 mM stock solution. […] A Labcyte ECHO 550 compound dispenser was used to facilitate compound transfer directly to cells. Cells were equilibrated for 2 hr with energy transfer probes and example compound prior to BRET measurements. […] For target engagement analysis, the energy transfer probes were added to the cells at concentrations optimized for the target in question (AKT E17K). Following compound incubation, NanoBRET NanoGlo Substrate (Promega Cat #N157D) and Extracellular Nanoluc Inhibitor (Promega Cat #N235C) was added according to the manufacturer's recommended protocol, and luminescence was measured on Envision Reader (Perkin Elmer) Multimode Luminometer equipped with 450 nmBPfilter (donor) and 600 nmLPfilter (acceptor), using 0.5 s integration time. Milli-BRET units (mBU) are calculated by multiplying the raw BRET values by 1000. Apparent tracer affinity values (EC50) were determined using the sigmoidal dose-response (variable slope). Competitive displacement data were then plotted and data were fit to determine the EC50 value for each example compound.
Usually IC50 stands for the concentration at which inhibition is half-maximal. Lower therefore signals higher potency. `Nc1ncccc1-c1nc2ccc(-c3ccccc3)nc2n1-c1ccc(CN2CCC3(CC2)CC(NC(=O)c2ccc(O)c(C=O)c2)C3)cc1` [Example 68, N-(7-(4-(2-(2-Aminopyridin-3-yl)-5-phenyl-3H-imidazo[4,5-b]pyridin-3-yl)benzyl)-7-azaspiro[3.5]nonan-2-yl)-3-formyl-4-hydroxybenzamide] registered an IC50 of 15 to 60 nM. As for `Nc1ncccc1-c1nc2ccc(-c3ccccc3)nc2n1-c1ccc(CN2CCN(C(=O)c3ccc(O)c(C=O)c3)CC2)cc1` [Example 5, 5-(4-(4-(2-(2-Aminopyridin-3-yl)-5-phenyl-3H-imidazo[4,5-b]pyridin-3-yl)benzyl)piperazine-1-carbonyl)-2-hydroxybenzaldehyde], the figure is 60 to 600 nM. The compound `Nc1ncccc1-c1nc2ccc(-c3ccccc3)nc2n1-c1ccc(COc2cccc(O)c2C=O)cc1` [Example 137, 2-((4-(2-(2-Aminopyridin-3-yl)-5-phenyl-3H-imidazo[4,5-b]pyridin-3-yl)benzyl)oxy)-6-hydroxybenzaldehyde] gave a concentration for half-maximal inhibition (IC50) of over 600 nM.

For the compound `Nc1ncccc1-c1nc2ccc(-c3ccccc3)nc2n1-c1ccc(CN2CCC3(CC2)CCN(C(=O)c2ccc(C=O)c(O)c2)C3)cc1` [Example 75, 4-(8-(4-(2-(2-Aminopyridin-3-yl)-5-phenyl-3H-imidazo[4,5-b]pyridin-3-yl)benzyl)-2,8-diazaspiro[4.5]decane-2-carbonyl)-2-hydroxybenzaldehyde], the half-inhibitory concentration (IC50) was in the range of 60 to 600 nM. As for `C[C@H]1CN(Cc2ccc(-n3c(-c4cccnc4N)nc4ccc(-c5ccccc5)nc43)cc2)CCN1c1ccc(C=O)c(O)c1` [Example 107, (S)-4-(4-(4-(2-(2-aminopyridin-3-yl)-5-phenyl-3H-imidazo[4,5-b]pyridin-3-yl)benzyl)-2-methylpiperazin-1-yl)-2-hydroxybenzaldehyde], the concentration for half-maximal inhibition (IC50) was 60 to 600 nM. As to `Nc1ncccc1-c1nc2ccc(-c3ccc[nH]c3=O)nc2n1-c1ccc(CN2CCN(C(=O)c3ccc(O)c(C=O)c3)CC2)cc1` [Example 14, 5-(4-(4-(2-(2-Aminopyridin-3-yl)-5-(2-oxo-1,2-dihydropyridin-3-yl)-3H-imidazo[4,5-b]pyridin-3-yl)benzyl)piperazine-1-carbonyl)-2-hydroxybenzaldehyde], the IC50 was over 600 nM. Turning to `Nc1ncccc1-c1nc2ccc(-c3ccccc3)nc2n1-c1ccc(CN2CC[C@]3(CCN(C(=O)c4ccc(O)c(C=O)c4)C3)C2)cc1` [Example 101, (S)-5-(7-(4-(2-(2-Aminopyridin-3-yl)-5-phenyl-3H-imidazo[4,5-b]pyridin-3-yl)benzyl)-2,7-diazaspiro[4.4]nonane-2-carbonyl)-2-hydroxybenzaldehyde], the IC50 lay within 60 to 600 nM. The compound `Nc1ncccc1-c1nc2ccc(-c3ccccc3)nc2n1-c1ccc(CN2CCC3(CCN(c4ccc(C=O)c(O)c4)C3)C2)cc1` (centres unmarked) [Example 82, 4-(7-(4-(2-(2-Aminopyridin-3-yl)-5-phenyl-3H-imidazo[4,5-b]pyridin-3-yl)benzyl)-2,7-diazaspiro[4.4]nonan-2-yl)-2-hydroxybenzaldehyde] registered an IC50 of 60 to 600 nM.

`Nc1ncccc1-c1nc2ccc(-c3cccc(=O)[nH]3)nc2n1-c1ccc(CN2CCN(C(=O)c3ccc(O)c(C=O)c3)CC2)cc1` [Example 45, 5-(4-(4-(2-(2-Aminopyridin-3-yl)-5-(6-oxo-1,6-dihydropyridin-2-yl)-3H-imidazo[4,5-b]pyridin-3-yl)benzyl)piperazine-1-carbonyl)-2-hydroxybenzaldehyde]: the IC50 was over 600 nM. `N#Cc1ccccc1-c1ccc2nc(-c3cccnc3N)n(-c3ccc(CN4CCN(C(=O)c5ccc(C=O)c(O)c5)CC4)cc3)c2n1` [Example 37, 2-(2-(2-Aminopyridin-3-yl)-3-(4-((4-(4-formyl-3-hydroxybenzoyl)piperazin-1-yl)methyl)phenyl)-3H-imidazo[4,5-b]pyridin-5-yl)benzonitrile]: the IC50 lay within 60 to 600 nM. As for `Nc1ncccc1-c1nc2ccc(-c3ccccc3)nc2n1-c1ccc(CN2CCCN(C(=O)c3ccc(C=O)c(O)c3)CC2)cc1` [Example 72, 4-(4-(4-(2-(2-Aminopyridin-3-yl)-5-phenyl-3H-imidazo[4,5-b]pyridin-3-yl)benzyl)-1,4-diazepane-1-carbonyl)-2-hydroxybenzaldehyde], the figure is 15 to 60 nM. `Nc1ncccc1-c1nc2ccc(-c3ccccc3Cl)nc2n1-c1ccc(CN2CCN(c3ccc(C=O)c(O)c3)CC2)cc1` [Example 145, 4-(4-(4-(2-(2-Aminopyridin-3-yl)-5-(2-chlorophenyl)-3H-imidazo[4,5-b]pyridin-3-yl)benzyl)piperazin-1-yl)-2-hydroxybenzaldehyde] yielded an IC50 of 60 to 600 nM. Turning to `Nc1ncccc1-c1nc2ccc(-c3ccc(Cl)cc3)nc2n1-c1ccc(CN2CCN(C(=O)c3ccc(O)c(C=O)c3)CC2)cc1` [Example 147, 5-(4-(4-(2-(2-aminopyridin-3-yl)-5-(4-chlorophenyl)-3H-imidazo[4,5-b]pyridin-3-yl)benzyl)piperazine-1-carbonyl)-2-hydroxybenzaldehyde], the IC50 was over 600 nM. The compound `C[C@H]1CN(Cc2ccc(-n3c(-c4cccnc4N)nc4ccc(-c5ccccc5)nc43)cc2)CCN1C(=O)c1ccc(O)c(C=O)c1` [Example 105, (S)-5-(4-(4-(2-(2-Aminopyridin-3-yl)-5-phenyl-3H-imidazo[4,5-b]pyridin-3-yl)benzyl)-2-methylpiperazine-1-carbonyl)-2-hydroxybenzaldehyde] came in with an IC50 of 60 to 600 nM. Next, `Nc1ncccc1-c1nc2ccc(-c3ccccc3)nc2n1-c1ccc(CN2CC3(CCN(C(=O)c4ccc(C=O)c(O)c4)CC3)C2)cc1` [Example 96, 4-(2-(4-(2-(2-Aminopyridin-3-yl)-5-phenyl-3H-imidazo[4,5-b]pyridin-3-yl)benzyl)-2,7-diazaspiro[3.5]nonane-7-carbonyl)-2-hydroxybenzaldehyde]: 60 to 600 nM. For the compound `Nc1ncccc1-c1nc2ccc(-c3ccccc3)nc2n1-c1ccc(CN2CCC3(C2)CN(c2ccc(C=O)c(O)c2)C3)cc1` [Example 79, 4-(6-(4-(2-(2-Aminopyridin-3-yl)-5-phenyl-3H-imidazo[4,5-b]pyridin-3-yl)benzyl)-2,6-diazaspiro[3.4]octan-2-yl)-2-hydroxybenzaldehyde], the half-inhibitory concentration (IC50) is 15 to 60 nM. As to `Nc1ncccc1-c1nc2ccc(-c3ccccc3)nc2n1-c1ccc(CN2CC3CCC(C2)N3c2ccc(C=O)c(O)c2)cc1` [Example 111, 4-(3-(4-(2-(2-Aminopyridin-3-yl)-5-phenyl-3H-imidazo[4,5-b]pyridin-3-yl)benzyl)-3,8-diazabicyclo[3.2.1]octan-8-yl)-2-hydroxybenzaldehyde], the IC50 is over 600 nM. The compound `Nc1ncccc1-c1nc2cccnc2n1-c1ccc(CN2CCN(c3ccc(C=O)c(O)c3)CC2)cc1` [Example 16, 4-(4-(4-(2-(2-Aminopyridin-3-yl)-3H-imidazo[4,5-b]pyridin-3-yl)benzyl)piperazin-1-yl)-2-hydroxybenzaldehyde] had an IC50 of 60 to 600 nM.

In turn, `Nc1ncccc1-c1nc2ccc(-c3ccccc3)nc2n1-c1ccc(CN2CCC(Oc3ccc(C=O)c(O)c3)CC2)cc1` [Example 129, 4-((1-(4-(2-(2-Aminopyridin-3-yl)-5-phenyl-3H-imidazo[4,5-b]pyridin-3-yl)benzyl)piperidin-4-yl)oxy)-2-hydroxybenzaldehyde] returned a half-inhibitory concentration (IC50) of 15 to 60 nM. Consider `Nc1ncccc1-c1nc2ccc(-c3ccccc3)nc2n1-c1ccc(CN2CC[C@@]3(CCN(C(=O)c4ccc(C=O)c(O)c4)C3)C2)cc1` [Example 99, (R)-4-(7-(4-(2-(2-aminopyridin-3-yl)-5-phenyl-3H-imidazo[4,5-b]pyridin-3-yl)benzyl)-2,7-diazaspiro[4.4]nonane-2-carbonyl)-2-hydroxybenzaldehyde], for which the IC50 fell in the range of 60 to 600 nM. `Nc1ncccc1-c1nc2ccc(-c3ccccc3)nc2n1-c1ccc(CN2CC3(C2)CN(c2ccc(O)c(C=O)c2)C3)cc1` [Example 91, 5-(6-(4-(2-(2-Aminopyridin-3-yl)-5-phenyl-3H-imidazo[4,5-b]pyridin-3-yl)benzyl)-2,6-diazaspiro[3.3]heptan-2-yl)-2-hydroxybenzaldehyde] registered a half-inhibitory concentration (IC50) of 60 to 600 nM. The compound `Nc1ncccc1-c1nc2ccc(-c3ccccc3)nc2n1-c1ccc(CN2C[C@H]3CN(C(=O)c4ccc(O)c(C=O)c4)C[C@@H]3C2)cc1` [Example 135, 5-((3aS,6aS)-5-(4-(2-(2-Aminopyridin-3-yl)-5-phenyl-3H-imidazo[4,5-b]pyridin-3-yl)benzyl)octahydropyrrolo[3,4-c]pyrrole-2-carbonyl)-2-hydroxybenzaldehyde] gave an IC50 of 15 to 60 nM.

As to `Nc1ncccc1-c1nc2ccc(-c3ccccc3)nc2n1-c1ccc(CN2CCC(Oc3ccc(O)c(C=O)c3)CC2)cc1` [Example 130, 5-((1-(4-(2-(2-Aminopyridin-3-yl)-5-phenyl-3H-imidazo[4,5-b]pyridin-3-yl)benzyl)piperidin-4-yl)oxy)-2-hydroxybenzaldehyde], the IC50 is 60 to 600 nM.
